Patent US9206156B2, “Substituted indole derivatives” (GRÜNENTHAL GMBH, priority 2008, dated 2015)

Experiments:
[1] = biological target: T1, ORL1 receptor (Homo sapiens, UniProt P41146); assay: ORL1 receptor binding assay with 3H-nociceptin/orphanin FQ (WGA-SPA beads); conditions: c=1 μM test substance; 0.5 nM 3H-nociceptin/orphanin FQ; membranes of recombinant CHO-ORL1 cells
T1 construct: expressed in transfected cells; host or cells: CHO (recombinant CHO-ORL1 cells), membranes
Procedure, shortened: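 Affinity given as nanomolar Ki or as % inhibition at c=1 μM. Membranes of CHO cells expressing recombinant ORL1 (20 μg protein) were incubated one hour at room temperature with 0.5 nM 3H-nociceptin/orphanin FQ in Hepes 50 mM, pH 7.4, plus MgCl2 and EDTA; bound ligand detected by SPA bead scintillation counting.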

[2] = biological target: T2, human μ-opiate receptor (Homo sapiens, UniProt P35372); assay: μ-opiate receptor binding assay with [3H] naloxone (WGA-SPA beads); conditions: 1 μmol/l test substance, 1 nmol/l [3H] naloxone, CHO-K1 cell membranes expressing human μ-opiate receptor
T2 construct: purchased NEN, Zaventem, Belgium RB-HOM; host or cells: CHO-K1 cells (membrane preparation)
T2 sequence (P35372 whole entry): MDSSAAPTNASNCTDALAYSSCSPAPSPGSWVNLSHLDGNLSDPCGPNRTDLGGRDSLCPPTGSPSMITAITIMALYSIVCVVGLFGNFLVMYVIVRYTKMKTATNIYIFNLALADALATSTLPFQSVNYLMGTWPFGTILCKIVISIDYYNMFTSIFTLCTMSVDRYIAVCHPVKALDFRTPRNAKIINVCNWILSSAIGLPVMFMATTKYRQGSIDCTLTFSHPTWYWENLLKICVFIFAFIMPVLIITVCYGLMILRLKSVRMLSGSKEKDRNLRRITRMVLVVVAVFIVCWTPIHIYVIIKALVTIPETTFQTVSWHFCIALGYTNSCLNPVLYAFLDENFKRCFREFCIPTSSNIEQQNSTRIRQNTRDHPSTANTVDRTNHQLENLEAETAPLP
Procedure, shortened: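 Scintillation proximity readout: [3H]naloxone (1 nmol/l) displacement measured after 90 min, room temperature, on human μ-receptor CHO-K1 membranes in Tris-HCl/azide/BSA buffer; 25 μmol/l naloxone defined non-specific binding. Values are % specific-binding inhibition at 1 μmol/l, or Ki from IC50 (Cheng-Prusoff).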

T1 sequence (P41146 whole entry): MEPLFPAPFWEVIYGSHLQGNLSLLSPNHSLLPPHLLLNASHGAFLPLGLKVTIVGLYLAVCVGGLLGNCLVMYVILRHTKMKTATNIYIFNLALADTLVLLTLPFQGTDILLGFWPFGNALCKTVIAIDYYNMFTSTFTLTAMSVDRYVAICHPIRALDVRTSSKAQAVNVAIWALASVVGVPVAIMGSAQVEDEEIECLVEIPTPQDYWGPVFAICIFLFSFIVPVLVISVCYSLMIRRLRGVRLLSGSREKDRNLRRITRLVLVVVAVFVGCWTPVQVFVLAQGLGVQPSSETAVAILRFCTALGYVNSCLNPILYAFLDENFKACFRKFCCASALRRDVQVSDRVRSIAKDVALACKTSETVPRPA

Question: Which “% Inhibition (ORL1) at 1 μM” value [1] does the source give for COc1ccc2[nH]cc(CN(C)CCN3CCC(c4ccccc4)(N(C)C)CC3)c2c1 [Example 75, 1-(2-(((5-Methoxy-1H-indol-3-yl)methyl)(methyl)amino)ethyl)-N,N-dimethyl-4-phenylpiperidin-4-amine] here?
Answer: 79%

Question: What about the “% Inhibition (μ) at 1 μM” value ([2]; 1 µM) of the same molecule?
Answer: 97%

Question: Which results are given for COc1ccc2[nH]cc(CNCCN3CCC(c4cccs4)(N(C)C)CC3)c2c1 [Example 76, 1-(2-((5-Methoxy-1H-indol-3-yl)methylamino)ethyl)-N,N-dimethyl-4-(thiophen-2-yl)pipendin-4-amine]?
Answer: % Inhibition (ORL1) at 1 μM [1]: 93%; % Inhibition (μ) at 1 μM [2]: 99%

Question: With COc1ccc2c(c1)c(CN(C)CCN1CCC(c3ccccc3)(N(C)C)CC1)c(C)n2Cc1ccccc1 [Example 77, 1-(2-(((1-Benzyl-5-methoxy-2-methyl-1H-indol-3-yl)methyl)(methyl)amino)ethyl)-N,N-dimethyl-4-phenylpiperidin-4-amine] as the molecule, how does the “% Inhibition (ORL1) at 1 μM” value [1] read?
Answer: 60%

Question: And the “% Inhibition (μ) at 1 μM” value ([2]; 1 µM)?
Answer: 89%

Question: How did the inhibition at 1 µM [1] turn out when COc1ccc2c(c1)c(CNCCN1CCC(c3cccs3)(N(C)C)CC1)c(C)n2Cc1ccccc1 [Example 78, 1-(2-((1-Benzyl-5-methoxy-2-methyl-1H-indol-3-yl)methylamino)ethyl)-N,N-dimethyl-4-(thiophen-2-yl)piperidin-4-amine] was run?
Answer: 62%

Question: And the inhibition at 1 µM [2]?
Answer: 93%

Question: How did the “% Inhibition (ORL1) at 1 μM” value [1] turn out when Cc1c(CN(C)CCN2CCC(c3ccccc3)(N(C)C)CC2)c2ccccc2n1C [Example 79, 1-(2-(((1,2-Dimethyl-1H-indol-3-yl)methyl)(methyl)amino)ethyl)-N,N-dimethyl-4-phenylpiperidin-4-amine] was run?
Answer: 83%

Question: And the “% Inhibition (μ) at 1 μM” value ([2]; 1 µM)?
Answer: 101%

Question: How did the inhibition at 1 µM [1] turn out when Cc1c(CNCCN2CCC(c3cccs3)(N(C)C)CC2)c2ccccc2n1C [Example 80, 1-(2-((1,2-Dimethyl-1H-indol-3-yl)methylamino)ethyl)-N,N-dimethyl-4-(thiophen-2-yl)pipendin-4-amine] was run?
Answer: 97%

Question: And the inhibition at 1 µM [2]?
Answer: 101%

Question: With Cc1c(CN(C)CCCN2CCC(c3cccs3)(N(C)C)CC2)c2ccccc2n1C [Example 81, 1-(3-(((1,2-Dimethyl-1H-indol-3-yl)methyl)(methyl)amino)propyl)-N,N-dimethyl-4-(thiophen-2-yl)piperidin-4-amine] as the molecule, how does the inhibition at 1 µM [1] read?
Answer: 98%

Question: And the inhibition at 1 µM [2]?
Answer: 100%

Question: Which inhibition at 1 µM [1] does the source give for CC(C)C(C(=O)N1CCC(c2ccccc2)(N(C)C)CC1)N(C)C(=O)Cc1c[nH]c2cc(F)ccc12 (stereo not drawn) [Example 82, N-(1-(4-(dimethylamino)-4-phenylpiperidin-1-yl)-3-methyl-1-oxobutan-2-yl)-2-(6-fluoro-1H-indol-3-yl)-N-methylacetamide] here?
Answer: 97%

Question: What about the inhibition at 1 µM [2] of the same molecule?
Answer: 97%

Question: CC(C)C(C(=O)N1CCC(c2ccccc2)(N(C)C)CC1)N(C)C(=O)Cc1c[nH]c2ccc(Br)cc12 (stereo not drawn) [Example 83, 2-(5-bromo-1H-indol-3-yl)-N-(1-(4-(dimethylamino)-4-phenylpiperidin-1-yl)-3-methyl-1-oxobutan-2-yl)-N-methylacetamide] was tested. Which inhibition at 1 µM [1] did it give?
Answer: 95%

Question: What about the inhibition at 1 µM [2] of the same molecule?
Answer: 84%

Question: For CC(C)C(CC(=O)NCCC(=O)N1CCC(c2ccccc2)(N(C)C)CC1)c1c[nH]c2ccccc12 (stereo not drawn) [Example 84, N-(3-(4-(dimethylamino)-4-phenylpiperidin-1-yl)-3-oxopropyl)-3-(1H-indol-3-yl)-4-methylpentanamide], which inhibition at 1 µM [1] is on record?
Answer: 95%

Question: And the inhibition at 1 µM [2]?
Answer: 100%

Question: For CC(C)C(CC(=O)NC(CC(=O)N1CCC(c2cccs2)(N(C)C)CC1)c1ccccc1)c1c[nH]c2ccccc12 (stereo not drawn) [Example 85, N-(3-(4-(dimethylamino)-4-(thiophen-2-yl)piperidin-1-yl)-3-oxo-1-phenylpropyl)-3-(1H-indol-3-yl)-4-methylpentanamide], which inhibition at 1 µM [1] is on record?
Answer: 94%

Question: And the inhibition at 1 µM [2]?
Answer: 101%

Question: For CN(C)C1(c2ccccc2)CCN(C(=O)C2CN(C(=O)Cc3c[nH]c4cc(F)ccc34)c3ccccc32)CC1 (stereo not drawn) [Example 86, 1-(3-(4-(dimethylamino)-4-phenylpiperidine-1-carbonyl)indolin-1-yl)-2-(6-fluoro-1H-indol-3-yl)ethanone], which inhibition at 1 µM [1] is on record?
Answer: 94%

Question: What about the inhibition at 1 µM [2] of the same molecule?
Answer: 88%

Question: How did the “% Inhibition (ORL1) at 1 μM” value [1] turn out when CC(C)C(CC(=O)N(C)CCN1CCC(c2ccccc2)(N(C)C)CC1)c1c[nH]c2ccccc12 (stereo not drawn) [Example 87, N-(2-(4-(dimethylamino)-4-phenylpiperidin-1-yl)ethyl)-3-(1H-indol-3-yl)-N,4-dimethylpentanamide] was run?
Answer: 93%

Question: What about the “% Inhibition (μ) at 1 μM” value ([2]; 1 µM) of the same molecule?
Answer: 102%

Question: Which results are given for CC(C)C(CC(=O)NCC(=O)N1CCC(c2cccs2)(N(C)C)CC1)c1c[nH]c2ccccc12 (stereo not drawn) [Example 88, N-(2-(4-(dimethylamino)-4-(thiophen-2-yl)piperidin-1-yl)-2-oxoethyl)-3-(1H-indol-3-yl)-4-methylpentanamide]?
Answer: inhibition at 1 µM [1]: 92%; inhibition at 1 µM [2]: 94%

Question: What does the source list for CC(C)C(CC(=O)N1CC(C(=O)N2CCC(c3ccccc3)(N(C)C)CC2)c2ccccc21)c1c[nH]c2ccccc12 (stereo not drawn) [Example 89, 1-(3-(4-(dimethylamino)-4-phenylpiperidine-1-carbonyl)indolin-1-yl)-3-(1H-indol-3-yl)-4-methylpentan-1-one]?
Answer: inhibition at 1 µM [1]: 91%; inhibition at 1 µM [2]: 94%

Question: How did the “% Inhibition (ORL1) at 1 μM” value [1] turn out when CN(CCN1CCC(c2ccccc2)(N(C)C)CC1)C(=O)Cc1c[nH]c2cc(F)ccc12 [Example 90, N-(2-(4-(dimethylamino)-4-phenylpiperidin-1-yl)ethyl)-2-(6-fluoro-1H-indol-3-yl)-N-methylacetamide] was run?
Answer: 90%

Question: What about the “% Inhibition (μ) at 1 μM” value ([2]; 1 µM) of the same molecule?
Answer: 99%

Question: Which inhibition at 1 µM [1] does the source give for CC(CC(=O)NC(CC(=O)N1CCC(c2cccs2)(N(C)C)CC1)c1ccccc1)c1c[nH]c2ccccc12 (stereo not drawn) [Example 91, N-(3-(4-(dimethylamino)-4-(thiophen-2-yl)piperidin-1-yl)-3-oxo-1-phenylpropyl)-3-(1H-indol-3-yl)butanamide] here?
Answer: 89%

Question: What about the inhibition at 1 µM [2] of the same molecule?
Answer: 97%

Question: Which results are given for CC(CC(=O)NCCC(=O)N1CCC(c2ccccc2)(N(C)C)CC1)c1c[nH]c2ccccc12 (stereo not drawn) [Example 92, N-(3-(4-(dimethylamino)-4-phenylpiperidin-1-yl)-3-oxopropyl)-3-(1H-indol-3-yl)butanamide]?
Answer: inhibition at 1 µM [1]: 88%; inhibition at 1 µM [2]: 93%

Question: What does the source list for CN(C)C1(c2cccs2)CCN(C(=O)CC(NC(=O)Cc2c[nH]c3cc(F)ccc23)c2ccccc2)CC1 (stereo not drawn) [Example 93, N-(3-(4-(dimethylamino)-4-(thiophen-2-yl)piperidin-1-yl)-3-oxo-1-phenylpropyl)-2-(6-fluoro-1H-indol-3-yl)acetamide]?
Answer: inhibition at 1 µM [1]: 88%; inhibition at 1 µM [2]: 97%

Question: How did the inhibition at 1 µM [1] turn out when CC(C)C(C(=O)N1CCC(c2ccccc2)(N(C)C)CC1)N(C)C(=O)CCc1c[nH]c2ccccc12 (stereo not drawn) [Example 94, N-(1-(4-(dimethylamino)-4-phenylpiperidin-1-yl)-3-methyl-1-oxobutan-2-yl)-3-(1H-indol-3-yl)-N-methylpropanamide] was run?
Answer: 82%

Question: And the inhibition at 1 µM [2]?
Answer: 71%

Question: CN(C(=O)Cc1c[nH]c2cc(F)ccc12)C(C(=O)N1CCC(c2cccs2)(N(C)C)CC1)c1ccccc1 (stereo not drawn) [Example 95, N-(2-(4-(dimethylamino)-4-(thiophen-2-yl)piperidin-1-yl)-2-oxo-1-phenylethyl)-2-(6-fluoro-1H-indol-3-yl)-N-methylacetamide] was tested. Which inhibition at 1 µM [1] did it give?
Answer: 82%

Question: And the inhibition at 1 µM [2]?
Answer: 81%

Question: Which inhibition at 1 µM [1] does the source give for CN(C)C1(c2cccs2)CCN(C(=O)CC(NC(=O)c2ccc3cc[nH]c3c2)c2ccccc2)CC1 (stereo not drawn) [Example 96, N-(3-(4-(dimethylamino)-4-(thiophen-2-yl)piperidin-1-yl)-3-oxo-1-phenylpropyl)-1H-indole-6-carboxamide] here?
Answer: 79%

Question: And the inhibition at 1 µM [2]?
Answer: 96%

Question: With CN(C)C1(c2cccs2)CCN(C(=O)CC(NC(=O)C2CCCc3c2[nH]c2ccc(Cl)cc32)c2ccccc2)CC1 (stereo not drawn) [Example 97, 6-chloro-N-(3-(4-(dimethylamino)-4-(thiophen-2-yl)piperidin-1-yl)-3-oxo-1-phenylpropyl)-2,3,4,9-tetrahydro-1H-carbazole-1-carboxamide] as the molecule, how does the inhibition at 1 µM [1] read?
Answer: 77%

Question: What about the inhibition at 1 µM [2] of the same molecule?
Answer: 70%

Question: Which inhibition at 1 µM [1] does the source give for CN(C)C1(c2ccccc2)CCN(C(=O)CCNC(=O)CCc2c[nH]c3ccccc23)CC1 [Example 98, N-(3-(4-(dimethylamino)-4-phenylpiperidin-1-yl)-3-oxopropyl)-3-(1H-indol-3-yl)propanamide] here?
Answer: 73%

Question: And the inhibition at 1 µM [2]?
Answer: 85%

Question: Which inhibition at 1 µM [1] does the source give for CN(C)C1(c2ccccc2)CCN(C(=O)CCNC(=O)c2ccc3ccn(C)c3c2)CC1 [Example 99, N-(3-(4-(dimethylamino)-4-phenylpiperidin-1-yl)-3-oxopropyl)-1-methyl-1H-indole-6-carboxamide] here?
Answer: 71%

Question: What about the inhibition at 1 µM [2] of the same molecule?
Answer: 87%

Question: How did the inhibition at 1 µM [1] turn out when CN(C(=O)Cc1c[nH]c2ccc(Br)cc12)C(C(=O)N1CCC(c2cccs2)(N(C)C)CC1)c1ccccc1 (stereo not drawn) [Example 100, 2-(5-bromo-1H-indol-3-yl)-N-(2-(4-(dimethylamino)-4-(thiophen-2-yl)piperidin-1-yl)-2-oxo-1-phenylethyl)-N-methylacetamide] was run?
Answer: 69%

Question: And the inhibition at 1 µM [2]?
Answer: 95%

Question: What does the source list for CN(C)C1(c2cccs2)CCN(C(=O)CC(NC(=O)c2ccc3ccn(C)c3c2)c2ccccc2)CC1 (stereo not drawn) [Example 101, N-(3-(4-(dimethylamino)-4-(thiophen-2-yl)piperidin-1-yl)-3-oxo-1-phenylpropyl)-1-methyl-1H-indole-6-carboxamide]?
Answer: inhibition at 1 µM [1]: 68%; inhibition at 1 µM [2]: 96%
